Source: patent US11078188B2, “Dihydroquinoxaline bromodomain recognition protein inhibitor, preparation method and use thereof” (SHANGHAI INSTITUTE OF MATERIA MEDICA, CHINESE ACADEMY OF …, priority 2017, dated 2021)

Legend:
[1] = target: BRD4 (I) (Homo sapiens (Human), UniProt O60885); test: Fluorescence anisotropy (FA) binding test on BRD4 (I); settings: BRD4 (I) 10 nM, fluorescent (+)-JQ1 substrate 5 nM, read-out: BRD4 (1) IC50
Experimental: The binding activity of the compound to BRD4 (I) was tested using a fluorescence anisotropy (FA) method. The principle of FA test is to calculate and analyze the fluorescence polarization values in the horizontal and vertical directions by detecting the change of molecular weight before and after the interaction of fluorescein-labeled small molecules with other molecules. If the equilibrium of the binding between the fluorescently labeled small molecule and macromolecule is established, it will move slowly when excited, and the measured fluorescence polarization value will increase. If the binding between the fluorescently labeled small molecule and the macromolecule is replaced by another ligand, its rotation or flipping speed in the free state will be faster, and the emitted light will be depolarized relative to the plane of the excitation light, and the measured polarized light value will decrease to calculate the fluorescence anisotropy of the sample.
Expression and purification of the BRD4(I) recognition domain: colonies of newly transformed plasmid DNA from E. coli BL21(DE3)-condon plus-RIL cells were cultivated in 50 mL of Terrific Broth medium containing 50 μg/mL kanamycin and 34 μg/mL chloramphenicol at 37° C. overnight (starting culture). The starting culture was then diluted 100-fold in 1 L of fresh TB medium and the cells were grown at 37° C. to an optical density of about 0.8 at OD600 and then the temperature was lowered to 16° C. When the system was equilibrated at 16° C., the optical density at OD600 was approximately 1.2, and protein expression was induced with 0.2 mmol of isopropyl-β-D-thiogalactopyranoside (IPTG) overnight at 16° C. Bacteria were harvested by centrifugation (4000×g, 20 minutes, 4° C.) and stored as a pellet at −80° C. The cells expressing His 6-tagged protein was resuspend in lysis buffer [50 mmol 4-hydroxyethylpiperazineethanesulfonic acid (HEPES), 25° C., pH 7.5, 500 mmol NaCl, 10 mmol imidazole, 5% glycerol and freshly added 0.5 mmol of tris(2-carboxyethyl)phosphine hydrochloride (TCEP) and 1 mmol of phenylmethanesulfonyl fluoride (PMSF)] and lysed at 4° C. using JN 3000PLUS high pressure homogenizer (JNBIO-Guangzhou, China). The lysate was clarified by centrifugation (12,000×g for 1 hour at 4° C.) and applied to a nickel-nitriloacetate agarose column. The column was washed once with 50 mL of wash buffer containing 30 mmol of imidazole. The protein was eluted using imidazole in an elution buffer in a stepwise elution (100-250 mmol imidazole in 50 mmol HEPES, 25° C., pH 7.5, 500 mmol NaCl, 5% glycerol). All fractions were collected and monitored by SDS-polyacrylamide gel electrophoresis (Bio-Rad Criterion TM Precast Gels, 4-12% Bis-Tris, 1.0 mm, from Bio-Rad, CA). After 1 mmol of dithiothreitol (DTT) was added, the eluted proteins were treated with tobacco […] virus (TEV) protease overnight at 4° C. to remove the His6 tag. The protein was concentrated and further purified by size exclusion chromatography on a Superdex 75 16/60 HiLoad gel filtration column. The samples were monitored by SDS-polyacrylamide gel electrophoresis and concentrated to 8-10 mg/mL with gel filtration buffer, 10 mmol Hepes pH 7.5, 500 mM NaCl, 1 mmol DTT, and used for protein binding assays and crystallization.
The fluorogenic substrate was (+)-JQ1 linked to a fluorescent molecule and the working concentration was 5 nM. BRD4 (I) protein had 10 nM of working concentration and the total reaction system was 40 μL. The buffer was 50 mM 4-hydroxyethylpiperazineethanesulfonic acid (HEPES) pH 7.4, 150 mM NaCl, 0.5 mM 3[(3-cholamidopropyl)dimethylammonio]propanesulfonate (CHAPS). […] The final concentration of DMSO was chosen to be 0.2%, taking into account the solubility of the compound and the effect of DMSO on the assay. All measurements were made under these conditions. […]

[2] = system: human myeloma cells MM.1S; test: MM.1S cell viability, CCK-8 method; type: cell-based; settings: for IC50: 72 h treatment, CCK-8; for inhibitory activity against the MM.1S cell line (in words): compared with positive (+)-JQ1
Experimental: The MM.1S cell line was tested for cell viability. The test methods were as follows: human myeloma cells MM.1S were treated with compound for 72 h, and the proliferation inhibition effect and degree of the compound were detected by CCK-8 method.

Molecule | IC50 [1] [nM] | IC50 ([2]; Homo sapiens, MM1.S) [nM] | inhibitory activity against the MM.1S cell line (in words) [2] | IC50 [2] [nM]
Cc1ccc(-n2nc(C(=O)N3C4CCC3CN(C)C4)cc2-c2ccc3c(c2)N(C2CCCC2)[C@H](C)C(=O)N3C)cc1 [Example 28] | 6.7 | – | – | –
Cc1ccc(-n2nc(C(=O)N3CCN(C)CC3)nc2-c2ccc3c(c2)N(C2CCCC2)[C@H](C)C(=O)N3C)c(C)c1 [Example 9] | 8.2 | 23 ± 7.42 | – | –
CCN1CCN(C(=O)c2nc(-c3ccc4c(c3)N(C3CCCC3)[C@H](C)C(=O)N4C)n(-c3ccc(C)cc3)n2)CC1 [Example 10] | 4.96 | 25.8 ± 0.52 | – | –
Cc1ccc(-n2nc(C(=O)N(C)CCN(C)C)nc2-c2ccc3c(c2)N(C2CCCC2)[C@H](C)C(=O)N3C)cc1 [Example 13] | 8.3 | 22.4 ± 1.4 | – | –
Cc1ccc(-n2nc(C(=O)N3CCN(C)CC3)nc2-c2ccc3c(c2)N(C2CC2)C(C)C(=O)N3C)c(C)c1 (stereo not drawn) [Example 34] | 13.9 | 9.11 ± 2.91 | better inhibitory activity against the MM.1S cell line than the positive (+)-JQ1 | –
Cc1ccc(-n2nc(C(=O)N3C[C@@H](N)C4(CC4)C3)nc2-c2ccc3c(c2)N(C2CCCC2)[C@H](C)C(=O)N3C)cc1 [Example 24] | 5.3 | – | – | –
Cc1ccc(-n2nc(C(=O)N3CCC4(CCCC4)CC3)nc2-c2ccc3c(c2)N(C2CCCC2)[C@H](C)C(=O)N3C)cc1 [Example 20] | 25.4 | – | – | –
Cc1ccc(-n2nc(C(=O)N3C[C@@H](C)N[C@@H](C)C3)nc2-c2ccc3c(c2)N(C2CCOCC2)[C@H](C)C(=O)N3C)cc1 [Example 39] | 10.3 | – | – | –
Cc1ccc(-n2nc(C(=O)N3CCN(C)CC3)nc2-c2ccc3c(c2)N(C2CCCC2)[C@H](C)C(=O)N3C)cc1F [Example 16] | 4.06 | 29.4 ± 9.3 | – | –
Cc1ccc(-n2nc(C(=O)N3C[C@@H](C)N[C@@H](C)C3)nc2-c2ccc3c(c2)N(C2COC2)[C@H](C)C(=O)N3C)cc1 [Example 38] | 13.6 | – | – | –
Cc1ccc(-n2nc(C(=O)N3CC4CCC(C3)N4C)nc2-c2ccc3c(c2)N(C2CCCC2)[C@H](C)C(=O)N3C)cc1 [Example 14] | 4.5 | 10.7 ± 1.71 | better inhibitory activity against the MM.1S cell line than the positive (+)-JQ1 | –
Cc1ccc(-n2nc(CN3C[C@@H](C)N[C@@H](C)C3)nc2-c2ccc3c(c2)N(C2CCCC2)[C@H](C)C(=O)N3C)cc1 [Example 47] | 6.7 | – | – | –
Cc1ccc(-n2nc(C(=O)N3C[C@@H](C)N[C@@H](C)C3)nc2-c2ccc3c(c2)N(C2CC2)C(C)C(=O)N3C)cc1 (stereo partly drawn) [Example 36] | 18.5 | 3.13 | better inhibitory activity against the MM.1S cell line than the positive (+)-JQ1 | –
Cc1ccc(-n2nc(C(=O)N3C[C@@H](C)N[C@@H](C)C3)nc2-c2ccc3c(c2)N(C2CCC(F)(F)CC2)[C@H](C)C(=O)N3C)cc1 [Example 40] | 16 | – | – | –
Cc1ccc(-n2c(C)nnc2-c2ccc3c(c2)N(C2CCCC2)[C@H](C)C(=O)N3C)cc1 [Example 32] | 5.1 | – | – | –
Cc1ccc(-n2nc(C(=O)N3CCCN(C)CC3)nc2-c2ccc3c(c2)N(C2CCCC2)[C@H](C)C(=O)N3C)cc1 [Example 19] | 4.6 | – | – | –
Cc1ccc(-n2nnnc2-c2ccc3c(c2)N(C2CCCC2)C(C)C(=O)N3C)cc1 (stereo not drawn) [Example 4] | 18.4 | – | – | –
Cc1ccc(-n2nc(C(=O)N3CCN(C(C)C)CC3)nc2-c2ccc3c(c2)N(C2CCCC2)[C@H](C)C(=O)N3C)cc1 [Example 15] | 4.2 | – | – | –
CCN1CCN(C(=O)c2nc(-c3ccc4c(c3)N(C3CC3)C(C)C(=O)N4C)n(-c3ccc(C)cc3C)n2)CC1 (stereo not drawn) [Example 35] | 14.5 | 15.5 ± 7.42 | better inhibitory activity against the MM.1S cell line than the positive (+)-JQ1 | –
Cc1ccc(-n2nc(C(=O)N3C[C@@H](C)N[C@@H](C)C3)nc2-c2ccc3c(c2)N(C(C)C)[C@H](C)C(=O)N3C)cc1 [Example 37] | 15.1 | 18.2 | better inhibitory activity against the MM.1S cell line than the positive (+)-JQ1 | –
Cc1ccc(-n2nc(C(=O)N3CCN4CCCC4C3)nc2-c2ccc3c(c2)N(C2CCCC2)[C@H](C)C(=O)N3C)cc1 (stereo partly drawn) [Example 22] | 8.1 | – | – | –
(+)-JQ1 [reference compound] | – | – | – | 19.3 ± 9.3
Cc1ccc(-n2nc(C(=O)N3C[C@@H](C)N[C@@H](C)C3)nc2-c2ccc3c(c2)N(C2CC(F)(F)C2)[C@H](C)C(=O)N3C)cc1 [Example 41] | 20.1 | – | – | –
Cc1ccc(-n2nc(C(=O)N3C4CCC3CN(C)C4)nc2-c2ccc3c(c2)N(C2CCCC2)[C@H](C)C(=O)N3C)cc1 [Example 18] | 6.5 | 10.22 ± 0.02 | better inhibitory activity against the MM.1S cell line than the positive (+)-JQ1 | –
Cc1ccc(-n2nc(C(=O)N3C[C@@H](NC(=O)OC(C)(C)C)C4(CC4)C3)nc2-c2ccc3c(c2)N(C2CCCC2)[C@H](C)C(=O)N3C)cc1 [Example 23] | 9.2 | – | – | –
Cc1ccc(-n2nc(C(=O)N3CCN(C4CC4)CC3)nc2-c2ccc3c(c2)N(C2CCCC2)[C@H](C)C(=O)N3C)cc1 [Example 11] | 5.08 | – | – | –
Cc1ccc(-n2nc(C(=O)N3CC4CCC(C3)N4C)cc2-c2ccc3c(c2)N(C2CCCC2)[C@H](C)C(=O)N3C)cc1 [Example 29] | 7.7 | – | – | –
C[C@@H]1C(=O)N(C)c2ccc(-c3nc(C(=O)N4CCN(C)CC4)nn3-c3ccccc3)cc2N1C1CCCC1 [Example 7] | 7.6 | – | – | –
Cc1ccc(-n2nc(C(=O)N3CCC4(CCOC4)CC3)nc2-c2ccc3c(c2)N(C2CCCC2)[C@H](C)C(=O)N3C)cc1 [Example 21] | 7.1 | – | – | –
